US8338482B2, “Modulating notch1 signaling pathway for treating neuroendocrine tumors” (Wisconsin Alumni Research Foundation, priority 2007, dated 2012)

Columns and labels:
Hedgehog signaling = details: 50 mg/kg/d i.p.
From the text: Sixty nude mice undergo intrasplenic injection of NE tumor cells as described above. […] Treatment continues for 8 weeks.
2) Interval assessment of tumor burden. All animals undergo microCT scanning every week for 8 weeks as described above. Blood is sampled weekly for measurement of serotonin or calcitonin levels.
3) Measurement of Hedgehog signaling inhibition. […] The liver lesions from animals sacrificed at 2 weeks intervals (n=3 per group) are microdissected from normal liver and total RNA extracted. Tumors in cycloamine treated mice are analyzed for downregulation of Gli1 expression by real-time PCR when compared to control animals.

Hedgehog pathway = details: murine models; cited from earlier work
Human MTC TT cells [1] = assay: MTT cell viability assay, medullary thyroid cancer cells; type: cell-based; details: concentrations up to 25 μM
Procedure: (§1) Human MTC TT cells were treated with SBHA in concentrations up to 25 μM and analyzed by Western blotting for evidence of Notch1 pathway activation and changes in neuroendocrine markers. MTT assay was used to measure cell viability. Finally mechanism of growth inhibition was analyzed by Western blotting.

[2] = tested on: BON human GI carcinoid cancer cells; assay: MTT cell proliferation assay, GI carcinoid cells; type: cell-based
From the text: (§2) Cell Culture BON human GI carcinoid cancer cells, kindly provided by Drs. B. Mark Evers and Courtney M. Townsend, Jr. (University of Texas Medical Branch, Galveston, Tex., USA), and H727 human lung carcinoid cancer cells (American Type Tissue Collection, Manassas, Va., USA) were maintained as previously described (Sippel, R S et al., Raf-1 Activation Suppresses neuroendocrine marker and hormone levels in human gastrointestinal carcinoid cells. Am J Physiol Gastrointest Liver Physiol. 2003 August; 285(2):G245-54, Van Gompel J J et al., ZM336372, A Raf-1 Activator, Suppresses Growth and Neuroendocrine Hormone Levels in Carcinoid Tumor Cells. Mol Cancer Ther. 2005 June; 4(6):910-7)
(§3) Cell Proliferation Assay Carcinoid cancer cell proliferation was measured by the MTT (thiazolyl blue tetrazolium bromide; Sigma-Aldrich, St. Louis, Mo., USA) rapid calorimetric assay as previously described (Van Gompel J J et al., ZM336372, A Raf-1 Activator, Suppresses Growth and Neuroendocrine Hormone Levels in Carcinoid Tumor Cells. Mol Cancer Ther. 2005 June; 4(6):910-7). Briefly, cells were seeded in quadruplicate on 24-well plates and incubated for 24 hours to allow cell attachment. The cells were then treated with SBHA (Sigma-Aldrich) in concentrations of 0 to 50 μM and incubated for up to 6 days. The MTT assay was performed by replacing the standard medium with 250 μL of serum-free medium containing MTT (0.5 mg/mL) and incubated at 37° C. for 3 hours. After incubation, 750 μL of dimethyl sulfoxide (Sigma-Aldrich) was added to each well and mixed thoroughly. The plates were then measured at 540 nm using a spectrophotometer (μQuant; Bio-Tek Instruments, Winooski, Vt., USA).
Cell Culture BON human gastrointestinal (GI) carcinoid tumor cells, kindly provided by Drs. B. Mark Evers and Courtney M. Townsend, Jr. […]
(§4) Cell Proliferation Assay Carcinoid tumor cell proliferation was measured by the MTT (methylthiazolyldiphenyl-tetrazolium bromide; Sigma-Aldrich, St. Louis, Mo.) rapid colorimetric assay as previously described (Van Gompel J J et al., ZM336372, A Raf-1 Activator, Suppresses Growth and Neuroendocrine Hormone Levels in Carcinoid Tumor Cells. Mol Cancer Ther 2005; 4:910-917). […] The plates were then measured at 540 nm using a spectrophotometer (μQuant; Bio-Tek Instruments, Winooski, Vt.).

[3] = tested on: H727 human lung carcinoid cancer cells; assay: Western blot analysis of pulmonary carcinoid cells; type: cell-based; details: SBHA, 48 hours
Human MTC TT cells [4] = assay: Western blotting of medullary thyroid cancer cells; type: cell-based; details: concentrations up to 25 μM
Procedure: as §1

[5] = tested on: BON human GI carcinoid cancer cells; assay: Western blot analysis of GI carcinoid cells; type: cell-based; details: 48 hours
Procedure: Cell Culture BON human GI carcinoid cancer cells, kindly provided by Drs. B. Mark Evers and Courtney M. Townsend, Jr.
Total protein concentrations were quantified with a bicinchoninic acid assay kit (Pierce Biotechnology, Rockford, Ill., USA). Denatured cellular extracts were resolved by SDS-PAGE, transferred to nitrocellulose membranes (Schleicher and Schuell, Keene, N.H., USA), blocked in milk, and incubated with appropriate antibodies. The antibody dilutions were: 1:1,000 for Notch1 (Santa Cruz Biotechnology, Santa Cruz, Calif., USA), mammalian achaete-scute homolog 1 (ASCL1; BD Biosciences, San Diego, Calif., USA), chromogranin A (Zymed Laboratories, San Francisco, Calif., USA), and cyclin D1 (Cell Signaling Technology, Danvers, Mass., USA), 1:2,000 for p21 (Cell Signaling Technology) and p27 (Santa Cruz Biotechnology), and 1:10,000 for glyceraldehyde-3-phosphate dehydrogenase (G3PDH; Trevigen, Gaithersburg, Md., USA). Horseradish peroxidase conjugated goat anti-rabbit or goat anti-mouse secondary antibodies (Pierce Biotechnology) were used depending on the source of the primary antibody. For visualization of the protein signal, Immunstar (Bio-Rad Laboratories, Hercules, Calif., USA) or SuperSignal West Femto (Pierce Biotechnology) kits were used per the manufacturer's instructions.
Cell Culture BON human gastrointestinal (GI) carcinoid tumor cells, kindly provided by Drs. B. Mark Evers and Courtney M. Townsend, Jr.
Total protein concentrations were quantified with a bicinchoninic acid assay kit (Pierce Biotechnology, Rockford, Ill.). Denatured cellular extracts were resolved by SDS-PAGE, transferred onto nitrocellulose membranes (Schleicher and Schuell, Keene, N H), blocked in milk, and incubated with appropriate antibodies. The antibody dilutions were: 1:1,000 for Notch1 (Santa Cruz Biotechnology, Santa Cruz, Calif.), mammalian achaete-scute homolog 1 (ASCL1; BD Biosciences, San Diego, Calif.), chromogranin A (Zymed Laboratories, San Francisco, Calif.), and cyclin D1 (Cell Signaling Technology, Danvers, Mass.), 1:2,000 for p21 (Cell Signaling Technology) and p27 (Santa Cruz Biotechnology), and 1:10,000 for glyceraldehyde-3-phosphate dehydrogenase (G3PDH; Trevigen, Gaithersburg, Md.). Horseradish peroxidase conjugated goat anti-rabbit or goat anti-mouse secondary antibodies (Pierce Biotechnology) were used depending on the source of the primary antibody. For visualization of the protein signal, Immunstar (Bio-Rad Laboratories, Hercules, Calif.) or SuperSignal West Femto (Pierce Biotechnology) kits were used per the manufacturer's instructions.

[6] = tested on: H727 human lung carcinoid cancer cells; assay: MTT cell proliferation assay, pulmonary carcinoid cells; type: cell-based; details: up to 6 days
From the text: as §2
as §3, with “After incubation, 750 μL of dimethyl sulfoxide (Sigma-Aldrich) was added to each well and mixed thoroughly.” left out, “USA). […]” for “USA).”
as §4

| Compound | Hedgehog signaling within the NE tumor cells (Hedgehog signaling) | Hedgehog signaling (Hedgehog pathway) | tumors dependent on Hedgehog signaling (Hedgehog pathway) | cell viability (Human MTC TT cells [1]) | cell proliferation ([2]; SBHA 0 to 50 μM, up to 6 days) | concentration giving significant growth inhibition ([2]; after 4 days of exposure) | levels of cyclin D1 [3] | levels of cyclin-dependent kinase inhibitors p21 and p27 [3] | ASCL1 (Human MTC TT cells [4]) | active form of Notch1 (Human MTC TT cells [4]) | chromogranin A (Human MTC TT cells [4]) | cleaved poly ADP-ribose polymerase (PARP) and caspase-3 (Human MTC TT cells [4]) | concentration resulting in induction of full-length Notch1 and Notch1 intracellular domain (NICD) ([5]; concentrations as low as) | levels of cyclin D1 ([5]; SBHA) | levels of cyclin-dependent kinase inhibitors p21 and p27 ([5]; SBHA) | cell growth ([6]; SBHA 0 to 50 μM) | concentrations that produced growth inhibition [6] |
| --- | --- | --- | --- | --- | --- | --- | --- | --- | --- | --- | --- | --- | --- | --- | --- | --- | --- |
| CC1=C2C[C@H]3[C@@H](CC=C4C[C@@H](O)CC[C@@]43C)[C@@H]2CC[C@]12O[C@@H]1C[C@H](C)CN[C@H]1[C@H]2C [Cyclopamine] | confirmed to inhibit | completely blocked | caused regression |  |  |  |  |  |  |  |  |  |  |  |  |  |  |
| O=C(CCCCCCC(=O)NO)NO [SBHA, suberic bishydroxamic acid] |  |  |  | dose-dependant decrease | profound dose-dependent inhibition | 5 µM | decreased levels | increased levels | concomitant decrease | dose-dependent induction | decrease | increase in protein levels | 5 µM | decreased levels | increased levels | dose-dependent growth suppression | 20 to 50 µM |
